Results from paper PMC10518257 (Nature Cancer, 2023).
Values joined by “and” are separate entries in the source; they are usually repeats but may differ in a detail not shown here. Equal values may be shown once. Read-outs that look alike come from different tables or passages of the source.

Experiment: Pharmacokinetic analysis of vepafestinib in rats (microdialysis PFC, CSF, plasma)
Type: in vivo, male Han Wistar rats

COCc1ccc(NC(=O)c2c(C#CCN3CCOCC3)n(C3(C)CC3)c3ncnc(N)c23)cc1 [Vepafestinib, 4-amino-N-[4-(methoxymethyl)phenyl]-7-(1-methylcyclopropyl)-6-[3-(morpholin-4-yl)prop-1-yn-1-yl]-7H-pyrrolo[2,3-d]pyrimidine-5-carboxamide]
Concentration in Rats, Plasma (free fraction) (3 mg/kg, 30 min, individual rats): 411 nM and 290 nM and 384 nM and 193 nM
Concentration in Rats, Plasma (free fraction) (3 mg/kg, 60 min, individual rats): 248 nM and 212 nM and 391 nM and 168 nM
concentration at 480 min (3 mg/kg, 60 min, individual rats, read-out: Concentration in Rats, Cerebrospinal fluid): 109 nM
concentration at 120 min (3 mg/kg, 60 min, individual rats, read-out: Concentration in Rats, Plasma (total)): 1620 nM and 1390 nM and 2560 nM and 1100 nM
Concentration in Rats, Plasma (free fraction) (3 mg/kg, 120 min, individual rats): 129 nM and 143 nM and 163 nM and 115 nM
Concentration in Rats, Plasma (free fraction) (3 mg/kg, 180 min, individual rats): 68 nM and 120 nM and 97.8 nM and 63 nM
Concentration in Rats, Plasma (free fraction) (3 mg/kg, 300 min, individual rats): 17.3 nM and 28.1 nM and 50.7 nM and 32.7 nM
Concentration in Rats, Plasma (free fraction) (3 mg/kg, 360 min, individual rats): 8.57 nM and 13.7 nM and 36.5 nM
Concentration in Rats, Plasma (free fraction) (3 mg/kg, 480 min, individual rats): 24.3 nM
Concentration in Rats, Plasma (free fraction) (10 mg/kg, 30 min, individual rats): 1323 nM and 1543 nM and 1071 nM and 1204 nM
Concentration in Rats, Plasma (free fraction) (10 mg/kg, 60 min, individual rats): 1016 nM and 1083 nM and 660 nM and 921 nM
Concentration in Rats, Plasma (free fraction) (10 mg/kg, 120 min, individual rats): 503 nM and 680 nM and 665 nM and 714 nM
Concentration in Rats, Plasma (free fraction) (10 mg/kg, 180 min, individual rats): 272 nM and 513 nM and 529 nM and 374 nM
Concentration in Rats, Plasma (free fraction) (10 mg/kg, 240 min, individual rats): 133 nM and 237 nM and 243 nM and 244 nM
Concentration in Rats, Plasma (free fraction) (10 mg/kg, 300 min, individual rats): 53.6 nM and 90.5 nM and 129 nM and 102 nM
Concentration in Rats, Plasma (free fraction) (10 mg/kg, 360 min, individual rats): 30.4 nM and 53.8 nM and 63.3 nM and 53.6 nM
Concentration in Rats, Plasma (free fraction) (10 mg/kg, 480 min, individual rats): 15.6 nM and 25.5 nM and 17.7 nM
Concentration in Rats, Plasma (free fraction) (50 mg/kg, 30 min, individual rats): 2310 nM and 2399 nM and 2002 nM and 1803 nM
Concentration in Rats, Plasma (free fraction) (50 mg/kg, 60 min, individual rats): 1589 nM and 1818 nM and 1742 nM and 1803 nM
Concentration in Rats, Plasma (free fraction) (50 mg/kg, 120 min, individual rats): 1415 nM and 2506 nM and 1273 nM and 2017 nM
Concentration in Rats, Plasma (free fraction) (50 mg/kg, 180 min, individual rats): 947 nM and 2200 nM and 964 nM and 1305 nM
Concentration in Rats, Plasma (free fraction) (50 mg/kg, 240 min, individual rats): 591 nM and 2093 nM and 1166 nM and 1108 nM
Concentration in Rats, Plasma (free fraction) (50 mg/kg, 300 min, individual rats): 740 nM and 1435 nM and 817 nM and 694 nM
Concentration in Rats, Plasma (free fraction) (50 mg/kg, 360 min, individual rats): 891 nM and 1181 nM and 821 nM and 400 nM
Concentration in Rats, Plasma (free fraction) (50 mg/kg, 480 min, individual rats): 20.5 nM and 680 nM and 743 nM and 651 nM
concentration at 120 min (male, Han Wistar, rat, cerebrospinal fluid, oral, 3 mg/kg, 120 min, individual rats, read-out: Concentration in Rats, Cerebrospinal fluid): 67.4 nM
concentration at 240 min (male, Han Wistar, rat, cerebrospinal fluid, oral, 3 mg/kg, 240 min, individual rats, read-out: Concentration in Rats, Cerebrospinal fluid): 28.8 nM
concentration at 480 min (male, Han Wistar, rat, cerebrospinal fluid, oral, 3 mg/kg, 480 min, individual rats, read-out: Concentration in Rats, Cerebrospinal fluid): 8.78 nM
concentration at 30 min (male, Han Wistar, rat, cerebrospinal fluid, oral, 10 mg/kg, 30 min, individual rats, read-out: Concentration in Rats, Cerebrospinal fluid): 961 nM
concentration at 120 min (male, Han Wistar, rat, cerebrospinal fluid, oral, 10 mg/kg, 120 min, individual rats, read-out: Concentration in Rats, Cerebrospinal fluid): 585 nM
concentration at 480 min (male, Han Wistar, rat, cerebrospinal fluid, oral, 50 mg/kg, rats, 50 mg/kg, 480 min, individual animals, read-out: Concentration in Cerebrospinal fluid): 430 nM
concentration at 480 min (male, Han Wistar, rat, cerebrospinal fluid, oral, 50 mg/kg, 480 min, individual rats, read-out: Concentration in Rats, Cerebrospinal fluid): 486 nM
concentration at 120 min (male, Han Wistar, rat, plasma (total), oral, 3 mg/kg, 120 min, individual rats, read-out: Concentration in Rats, Plasma (total)): 845 nM
concentration at 180 min (male, Han Wistar, rat, plasma (total), oral, 3 mg/kg, 180 min, individual rats, read-out: Concentration in Rats, Plasma (total)): 445 nM
concentration at 480 min (male, Han Wistar, rat, plasma (total), oral, 3 mg/kg, 480 min, individual rats, read-out: Concentration in Rats, Plasma (total)): 159 nM
concentration at 30 min (male, Han Wistar, rat, plasma (total), oral, 10 mg/kg, 30 min, individual rats, read-out: Concentration in Rats, Plasma (total)): 8660 nM
concentration at 60 min (male, Han Wistar, rat, plasma (total), oral, 10 mg/kg, 60 min, individual rats, read-out: Concentration in Rats, Plasma (total)): 6650 nM
concentration at 120 min (male, Han Wistar, rat, plasma (total), oral, 10 mg/kg, 120 min, individual rats, read-out: Concentration in Rats, Plasma (total)): 3290 nM
concentration at 180 min (male, Han Wistar, rat, plasma (total), oral, 10 mg/kg, 180 min, individual rats, read-out: Concentration in Rats, Plasma (total)): 1780 nM
concentration at 240 min (male, Han Wistar, rat, plasma (total), oral, 10 mg/kg, 240 min, individual rats, read-out: Concentration in Rats, Plasma (total)): 872 nM
concentration at 480 min (male, Han Wistar, rat, plasma (total), oral, 10 mg/kg, 480 min, individual rats, read-out: Concentration in Rats, Plasma (total)): 102 nM
concentration at 120 min (male, Han Wistar, rat, plasma (total), oral, 50 mg/kg, rats, 50 mg/kg, 120 min, individual animals, read-out: Concentration in Plasma (total)): 9260 nM
concentration at 30 min (male, Han Wistar, rat, plasma (total), oral, 50 mg/kg, 30 min, individual rats, read-out: Concentration in Rats, Plasma (total)): 15100 nM
concentration at 60 min (male, Han Wistar, rat, plasma (total), oral, 50 mg/kg, 60 min, individual rats, read-out: Concentration in Rats, Plasma (total)): 10400 nM
concentration at 120 min (male, Han Wistar, rat, plasma (total), oral, 50 mg/kg, 120 min, individual rats, read-out: Concentration in Rats, Plasma (total)): 9260 nM
